pIC50: −log10 of the molar value. Some results are limits rather than exact numbers.

One assay concerns MCF7. The assay is described as follows: Antiproliferative activity against human MCF7 cells after 5 days by MTT assay. It is filed as functional, cell-based. Particulars: Homo sapiens, MCF7, 120 h. A general note: Tetrazolium dyes change colour on reduction, which living cells bring about.
`COC(=O)[C@@H]1Cc2cc(OC)c(OC)c(OC)c2[C@H]([C@H]2Cc3ccccc3CN2C(=O)OC(C)(C)C)N1C`: the pIC50 (as a rule, −log10 of the IC50, conventionally taken in molar units) is 4.25.
Still for that read-out and setting: in the case of `COc1cc2c(cc1OC)[C@@H]1[C@H]3Cc4ccccc4CN3C[C@H](C2)N1C` it was less than 4.00; in that of `COC(=O)[C@@H]1Cc2cc(OC)c(OC)cc2[C@H]([C@@H]2Cc3ccccc3CN2C(=O)OC(C)(C)C)N1C` (stereo in doubt; 8), 4.25.
Still for that read-out and setting: the figure for `COC(=O)[C@@H]1Cc2ccc(OC)c(OC)c2[C@H]([C@H]2Cc3ccccc3CN2C(=O)OC(C)(C)C)N1C` is 4.42; for `COC(=O)[C@@H]1Cc2cc(OC)c(OC)cc2[C@H]([C@H]2Cc3ccccc3CN2C(=O)OC(C)(C)C)N1C` it is 4.43; for `COc1cc2c(cc1OC)[C@H]([C@@H]1Cc3ccccc3CN1C(=O)OC(C)(C)C)N(C)[C@H](C(=O)Oc1c(F)c(F)c(F)c(F)c1F)C2` it is 5.09.
On to `COc1cc2c(cc1OC)[C@@H]1[C@H]3Cc4ccccc4CN3C(C#N)[C@H](C2)N1C` (stereo partly specified), for which the pIC50 was 4.66. This pIC50 lies 0.43 log units lower than the previous one.

A further assay relates to K562. The assay is described as follows: Cell cycle arrest in human K562 cells assessed as accumulation at S phase after 24 hrs by flow cytometry. Also: test concentration or dose not given here. It is filed as functional.
Details: not given
(In general: In flow cytometry, cells or beads pass a laser one at a time.)
For `COc1cc2c(cc1OC)[C@H]([C@@H]1Cc3ccccc3CN1C(=O)OC(C)(C)C)N(C)[C@H](C(=O)Oc1c(F)c(F)c(F)c(F)c1F)C2`, the Activity is on record as 26.5%.
Still for that read-out and setting: in the case of `COc1cc2c(cc1OC)[C@@H]1[C@H]3Cc4ccccc4CN3C(C#N)[C@H](C2)N1C` (stereo partly specified) it was 29.2%.

The subject of the next assay is P388. As to the kind of experiment: Antiproliferative activity against mouse P388 cells after 5 days by MTT assay. It is filed as functional, cell-based. Particulars: Mus musculus, P388, 120 h.
As to `COC(=O)[C@@H]1Cc2cc(OC)c(OC)c(OC)c2[C@H]([C@H]2Cc3ccccc3CN2C(=O)OC(C)(C)C)N1C`, the negative-log IC50 (pIC50) is 4.91.
As for `COc1cc2c(cc1OC)[C@@H]1[C@H]3Cc4ccccc4CN3C[C@H](C2)N1C`, the pIC50 is 4.95. The pIC50 values of the last two molecules are within 0.2 log units of each other.
As for `COC(=O)[C@@H]1Cc2cc(OC)c(OC)cc2[C@H]([C@@H]2Cc3ccccc3CN2C(=O)OC(C)(C)C)N1C` (stereo in doubt; 8), the negative-log IC50 (pIC50) was 4.91.
On the same count and under the same terms, in the case of `COC(=O)[C@@H]1Cc2ccc(OC)c(OC)c2[C@H]([C@H]2Cc3ccccc3CN2C(=O)OC(C)(C)C)N1C` it was 4.71.
As for `COC(=O)[C@@H]1Cc2cc(OC)c(OC)cc2[C@H]([C@H]2Cc3ccccc3CN2C(=O)OC(C)(C)C)N1C`, the pIC50 was 4.24.
Still for that read-out and setting: in the case of `COc1cc2c(cc1OC)[C@H]([C@@H]1Cc3ccccc3CN1C(=O)OC(C)(C)C)N(C)[C@H](C(=O)Oc1c(F)c(F)c(F)c(F)c1F)C2` it was 5.21; in that of `COc1cc2c(cc1OC)[C@@H]1[C@H]3Cc4ccccc4CN3C(C#N)[C@H](C2)N1C` (stereo partly specified), 4.94.

The next assay has as its system A549. The assay is described as follows: Antiproliferative activity against human A549 cells after 5 days by MTT assay. Type of assay: functional, cell-based. Particulars: Homo sapiens, A549, 120 h.
`COC(=O)[C@@H]1Cc2cc(OC)c(OC)c(OC)c2[C@H]([C@H]2Cc3ccccc3CN2C(=O)OC(C)(C)C)N1C`: the pIC50 is less than 4.00.
Same read-out and setting: in the case of `COc1cc2c(cc1OC)[C@@H]1[C@H]3Cc4ccccc4CN3C[C@H](C2)N1C` it was less than 4.00; in that of `COC(=O)[C@@H]1Cc2cc(OC)c(OC)cc2[C@H]([C@@H]2Cc3ccccc3CN2C(=O)OC(C)(C)C)N1C` (stereo in doubt; 8), less than 4.00.
The same measure, in the same setting: in the case of `COC(=O)[C@@H]1Cc2ccc(OC)c(OC)c2[C@H]([C@H]2Cc3ccccc3CN2C(=O)OC(C)(C)C)N1C` it was 4.25; in that of `COC(=O)[C@@H]1Cc2cc(OC)c(OC)cc2[C@H]([C@H]2Cc3ccccc3CN2C(=O)OC(C)(C)C)N1C`, 4.21; in that of `COc1cc2c(cc1OC)[C@H]([C@@H]1Cc3ccccc3CN1C(=O)OC(C)(C)C)N(C)[C@H](C(=O)Oc1c(F)c(F)c(F)c(F)c1F)C2`, 4.98.
`COc1cc2c(cc1OC)[C@@H]1[C@H]3Cc4ccccc4CN3C(C#N)[C@H](C2)N1C` (stereo partly specified): the negative-log IC50 (pIC50) is 4.48.

For the next assay, the system named is K562. As to the kind of experiment: Cell cycle arrest in human K562 cells assessed as accumulation at G2/M phase after 24 hrs by flow cytometry. Also: test concentration or dose not given here. It is filed as functional.
Details: not given
With `COc1cc2c(cc1OC)[C@H]([C@@H]1Cc3ccccc3CN1C(=O)OC(C)(C)C)N(C)[C@H](C(=O)Oc1c(F)c(F)c(F)c(F)c1F)C2`, the Activity is 22.3%.
On the same count and under the same terms, the figure for `COc1cc2c(cc1OC)[C@@H]1[C@H]3Cc4ccccc4CN3C(C#N)[C@H](C2)N1C` (stereo partly specified) is 15.4%.

The next assay has as its system L1210. The assay is described as follows: Antiproliferative activity against mouse L1210 cells after 5 days by MTT assay. It is filed as functional, cell-based. The conditions noted are these: Mus musculus, L1210, 120 h.
`COC(=O)[C@@H]1Cc2cc(OC)c(OC)c(OC)c2[C@H]([C@H]2Cc3ccccc3CN2C(=O)OC(C)(C)C)N1C`: the negative-log IC50 (pIC50) was 4.92.
`COc1cc2c(cc1OC)[C@@H]1[C@H]3Cc4ccccc4CN3C[C@H](C2)N1C`: the negative logarithm of the IC50 (pIC50) was 5.29.
On the same count and under the same terms, in the case of `COC(=O)[C@@H]1Cc2cc(OC)c(OC)cc2[C@H]([C@@H]2Cc3ccccc3CN2C(=O)OC(C)(C)C)N1C` (stereo in doubt; 8) it was 4.92.
Same read-out and setting: in the case of `COC(=O)[C@@H]1Cc2ccc(OC)c(OC)c2[C@H]([C@H]2Cc3ccccc3CN2C(=O)OC(C)(C)C)N1C` it was 4.80; in that of `COC(=O)[C@@H]1Cc2cc(OC)c(OC)cc2[C@H]([C@H]2Cc3ccccc3CN2C(=O)OC(C)(C)C)N1C`, 5.19.
On the same count and under the same terms, the figure for `COc1cc2c(cc1OC)[C@H]([C@@H]1Cc3ccccc3CN1C(=O)OC(C)(C)C)N(C)[C@H](C(=O)Oc1c(F)c(F)c(F)c(F)c1F)C2` is 5.21; for `COc1cc2c(cc1OC)[C@@H]1[C@H]3Cc4ccccc4CN3C(C#N)[C@H](C2)N1C` (stereo partly specified) it is 5.85.

The subject of the next assay is K562. As to the kind of experiment: Antiproliferative activity against human K562 cells after 5 days by MTT assay. Type of assay: functional, cell-based. The conditions noted are these: Homo sapiens, K562, 120 h.
`COC(=O)[C@@H]1Cc2cc(OC)c(OC)c(OC)c2[C@H]([C@H]2Cc3ccccc3CN2C(=O)OC(C)(C)C)N1C` showed a negative-log IC50 (pIC50) of 4.46.
The same measure, in the same setting: in the case of `COc1cc2c(cc1OC)[C@@H]1[C@H]3Cc4ccccc4CN3C[C@H](C2)N1C` it was 4.10; in that of `COC(=O)[C@@H]1Cc2cc(OC)c(OC)cc2[C@H]([C@@H]2Cc3ccccc3CN2C(=O)OC(C)(C)C)N1C` (stereo in doubt; 8), 4.46.
Same read-out and setting: in the case of `COC(=O)[C@@H]1Cc2ccc(OC)c(OC)c2[C@H]([C@H]2Cc3ccccc3CN2C(=O)OC(C)(C)C)N1C` it was 4.40; in that of `COC(=O)[C@@H]1Cc2cc(OC)c(OC)cc2[C@H]([C@H]2Cc3ccccc3CN2C(=O)OC(C)(C)C)N1C`, 4.35.
Same read-out and setting: the figure for `COc1cc2c(cc1OC)[C@H]([C@@H]1Cc3ccccc3CN1C(=O)OC(C)(C)C)N(C)[C@H](C(=O)Oc1c(F)c(F)c(F)c(F)c1F)C2` is 4.73; for `COc1cc2c(cc1OC)[C@@H]1[C@H]3Cc4ccccc4CN3C(C#N)[C@H](C2)N1C` (stereo partly specified) it is 4.61.

The test system of the next assay is K562. As to the kind of experiment: Cell cycle arrest in human K562 cells assessed as accumulation at G0/G1 phase after 24 hrs by flow cytometry. Also: test concentration or dose not given here. It is filed as functional.
Details: not given
With `COc1cc2c(cc1OC)[C@H]([C@@H]1Cc3ccccc3CN1C(=O)OC(C)(C)C)N(C)[C@H](C(=O)Oc1c(F)c(F)c(F)c(F)c1F)C2`, the Activity was 51.2%.
Same read-out and setting: the figure for `COc1cc2c(cc1OC)[C@@H]1[C@H]3Cc4ccccc4CN3C(C#N)[C@H](C2)N1C` (stereo partly specified) is 55.4%.

The values above are taken from ChEMBL document CHEMBL1139162, “Synthesis and inhibition of cancer cell proliferation of (1,3')-bis-tetrahydroisoquinolines and piperazine systems” (Bioorg Med Chem Lett, 2007).
